According to patent US20100203123A1, “METHODS FOR IMPROVING COGNITIVE FUNCTION AND DECREASING HEART RATE” (MARTEK BIOSCIENCES CORPORATION, priority 2009, published 2010):
“Also recorded” adds a separate entry of the source.

Assays:
[1] = test system: healthy elderly subjects with a mild memory complaint; test: CANTAB Verbal Recognition Memory (VRM) test; assay type: in vivo, human
Procedure: The effects of DHA (about 900 mg/day) versus placebo was tested to determine whether cognitive measures of memory, attention, and executive function were improved, utilizing the Cambridge Neuropsychological Test Automated Battery (CANTAB) cognitive battery, in healthy elderly subjects with a mild memory complaint. One objective of the study was to determine the effect of DHA administration versus placebo on improving cognitive functions (i.e., working memory, memory retention, attention, processing speed, and executive function) in healthy elderly with a subjective memory complaint. Another objective of the study included determining the effects of DHA on visual acuity, levels of plasma phospholipids, and evaluating the safety and tolerability of the DHA dose administered.
The DHA group was provided 800 mg soft-gelatin capsules, each containing about 300 mg DHA as a triglyceride from algal oil (DHASCO®-S oil, 40% DHA). In addition to 40% DHA, DHASCO®-S oil was formulated to contain 40-60% saturated, mono- and polyunsaturated fatty acids, 400 ppm ascorbyl palmitate, 2000 ppm mixed tocopherols, 2000 ppm rosemary extract, 3% orange-flavoring, and 1% natural masking agent. Subjects were instructed to take three 800 mg capsules/day, i.e., about 900 mg DHA/day.
(§1) The secondary efficacy endpoints included: • CANTAB tests of executive function and planning: Spatial Working Memory […] and Stockings of Cambridge (SOC) • CANTAB Verbal Recognition Memory test (VRM) • CANTAB Pattern Recognition test (PRM) • Visual acuity (measured by Snellen Eye chart; corrected vision) • Memory Functioning Questionnaire: Frequency of Forgetting-10 (Self-rating scale) • Activities of Daily Living (ADCS-ADL PI) scale (Self-rating) • Clinical measures of cognitive function and computerized assessments were administered by (CANTAB) certified examiners at each site blinded to the subject's treatment. • Description of CANTAB Battery of tests
Additional tests are included in CANTABeclipse and are available in the CANTABelect batteries. […]

[2] = test system: healthy elderly subjects with a mild memory complaint; test: CANTAB Spatial Working Memory (SWM) test; assay type: in vivo, human; settings: about 900 mg/d, 24 weeks
Procedure: The effects of DHA (about 900 mg/day) versus placebo was tested to determine whether cognitive measures of memory, attention, and executive function were improved, utilizing the Cambridge Neuropsychological Test Automated Battery (CANTAB) cognitive battery, in healthy elderly subjects with a mild memory complaint. One objective of the study was to determine the effect of DHA administration versus placebo on improving cognitive functions (i.e., working memory, memory retention, attention, processing speed, and executive function) in healthy elderly with a subjective memory complaint. […]
as §1, with “of tests […]” for “of tests”

Question: For `CC/C=C\C/C=C\C/C=C\C/C=C\C/C=C\C/C=C\CCC(=O)O` [DHA, (all-Z)-4,7,10,13,16,19-docosahexaenoic acid], which “VRM delayed recognition, change from baseline correct responses, diff. versus placebo” value ([1]; about 900 mg/d, p<0.02) is on record?
Answer: Its value is 0.4±0.18.

Question: And the “VRM immediate recognition, change from baseline correct responses, diff. versus placebo” value ([1]; about 900 mg/d, p<0.02)?
Answer: The value was 0.4±0.17.

Question: What about the “CANTAB Verbal recognition memory, effect of DHA supplementation” value ([1]; about 900 mg/day, 6 months) of the same compound?
Answer: The value was “modestly improved”.

Question: What about the “Spatial Working Memory (SWM) test responses, DHA versus placebo” value [2] of the same compound?
Answer: The value was “not significantly different; also recorded: not found”.
